One data set deals with endogenous TFEB. Description: TFEB nuclear translocation, immunocytochemistry high-content imaging. In kind it is cell-based.
For another data set, the system named is endogenous TFE3. Description: TFE3 nuclear translocation, immunocytochemistry high-content imaging. It is filed as cell-based.
Data set [1] concerns SH-SY5Y cells. Put plainly: Chemotype enrichment analysis of PKIS2 primary screen hit categories.
The test system of data set [2] is SH-SY5Y cells.
From the text: The PKIS2 Library was supplied by The Structural Genomics Consortium at the University of North Carolina at Chapel Hill.
Data set [3] concerns SH-SY5Y cells. The settings on record: human, SH-SY5Y cells, 24 h, 1 µM.
Method: Total cell lysis with 5 µL 5% Triton-X 100 (Sigma-Aldrich, T8787) is used as a positive control for the assay and toxicity is expressed as a percentage of luminescence under DMSO conditions.
Data set [4] relates to SH-SY5Y cells. The note with it: human, SH-SY5Y cells, 24 h, 1 µM. The source holds these as a separate data set.
For AK in this document: reference of the scale not given here.
For DQ Intensity in this document: reference of the scale not given here.
For DQ Spot in this document: reference of the scale not given here.
For Nuclear Count in this document: reference of the scale not given here.

For `O=C1NC(=O)C(N2CCc3ccccc32)=C1c1cccc(Cl)c1` [UNC10225137A], the TFEB % with endogenous TFEB is given as 4.79%. Also, the TFE3 % with endogenous TFE3 is 20.87%. Also, the Outcome result in the data set with SH-SY5Y cells [1] is reported as “TFE3”. In the data set on SH-SY5Y cells [2], the “DQ Intensity” value is listed as 107.62 and the “DQ Spot” value is recorded as 107.27. Also, the AK in the data set on SH-SY5Y cells [3] was 100.20. Further, the “Nuclear Count” value in the data set on SH-SY5Y cells [4] is listed as 132.24.

As for `CN(C1=C(c2ccccc2)C(=O)NC1=O)c1ccccc1` [UNC10225087A], in the data set with endogenous TFEB, the TFEB % is 6.00%. The compound also gave a TFE3 % with endogenous TFE3 of 7.91%. The Outcome result in the data set with SH-SY5Y cells [1] is reported as “TOXIC”. Besides, in the data set with SH-SY5Y cells [2], the “DQ Intensity” value was determined as 118.90 and the “DQ Spot” value stood at 112.39. In addition, the AK in the data set with SH-SY5Y cells [3] turned out to be 157.36. Also, in the data set with SH-SY5Y cells [4], the “Nuclear Count” value came to 105.86.

As for `O=C(Nc1n[nH]c2nc(-c3ccccc3)c(Cl)cc12)C1CC1` [SB-734909], the TFEB % in the data set on endogenous TFEB amounted to 6.63%. The compound further displayed a TFE3 % with endogenous TFE3 of 10.45%. Further, the Outcome entry with SH-SY5Y cells [1] is “DQ Only”. In the data set on SH-SY5Y cells [2], the “DQ Intensity” value is listed as 123.78 and the “DQ Spot” value stood at 126.24. In addition, in the data set on SH-SY5Y cells [3], the AK came to 83.64. Further, the “Nuclear Count” value in the data set on SH-SY5Y cells [4] is 45.35.

Turning to `Nc1n[nH]c2nnc(-c3ccccc3)cc12` [SB-517389], the TFEB % with endogenous TFEB came to 5.21%. This compound also registered a TFE3 % in the data set on endogenous TFE3 of 18.57%. Moreover, the Outcome entry in the data set with SH-SY5Y cells [1] is “DQ Only”. For the same compound, in the data set with SH-SY5Y cells [2], the “DQ Intensity” value stood at 136.15 and the “DQ Spot” value is given as 127.72. The AK in the data set with SH-SY5Y cells [3] is 99.42. Further, in the data set with SH-SY5Y cells [4], the “Nuclear Count” value is listed as 69.78.

For the compound `COc1ccc(C2=C(Nc3cccc(O)c3)C(=O)NC2=O)cc1` [UNC10225299A], the TFEB % in the data set on endogenous TFEB amounted to 8.50%. Besides, the TFE3 % in the data set with endogenous TFE3 is listed as 15.17%. Also, the Outcome result in the data set on SH-SY5Y cells [1] was “DQ Only”. In addition, in the data set with SH-SY5Y cells [2], the “DQ Intensity” value was 174.21 and the “DQ Spot” value was found to be 115.16. In the data set on SH-SY5Y cells [3], this compound displayed an AK of 102.75. Moreover, in the data set on SH-SY5Y cells [4], the “Nuclear Count” value amounted to 77.10.

Take `Fc1ccc(-c2ncn(C3CCNCC3)c2-c2ccnc(Oc3ccc(-c4ccccc4)cc3)n2)cc1` [UNC10225377A]: the TFEB % in the data set on endogenous TFEB was 13.41%. In the data set with endogenous TFE3, this compound gave a TFE3 % of 24.21%. The Outcome result in the data set with SH-SY5Y cells [1] is “TFE3 + DQ Int”. In addition, in the data set on SH-SY5Y cells [2], the “DQ Intensity” value is 170.99 and the “DQ Spot” value was 76.67. In the data set with SH-SY5Y cells [3], this compound yielded an AK of 108.76. Also, the “Nuclear Count” value in the data set on SH-SY5Y cells [4] amounted to 106.99.

Turning to `O=C1NC(=O)C(N2CCc3ccccc32)=C1c1ccccc1Cl` [UNC10225255A], in the data set with endogenous TFEB, the TFEB % is reported as 3.84%. In the data set on endogenous TFE3, this compound came in with a TFE3 % of 11.28%. For the same compound, the Outcome result with SH-SY5Y cells [1] is “DQ Only”. Besides, in the data set on SH-SY5Y cells [2], the “DQ Intensity” value was found to be 155.35 and the “DQ Spot” value was 121.27. In addition, the AK in the data set on SH-SY5Y cells [3] is 83.08. For the same compound, the “Nuclear Count” value in the data set with SH-SY5Y cells [4] is given as 86.30.

Turning to `COc1cccc(C2=C(Nc3cccc(C(=O)O)c3)C(=O)NC2=O)c1` [UNC10225061A], in the data set with endogenous TFEB, the TFEB % is 7.42%. The TFE3 % in the data set on endogenous TFE3 is 19.97%. Moreover, in the data set on SH-SY5Y cells [1], the Outcome entry is listed as “TFE3”. In addition, in the data set on SH-SY5Y cells [2], the “DQ Intensity” value is 83.20 and the “DQ Spot” value was found to be 110.64. In the data set on SH-SY5Y cells [3], this compound came in with an AK of 91.51. For the same compound, the “Nuclear Count” value in the data set on SH-SY5Y cells [4] is listed as 71.42.

With `O=C(Nc1n[nH]c2nc(-c3cccs3)c(Br)cc12)C1CC1` [SB-735297], the TFEB % in the data set on endogenous TFEB was determined as 7.45%. Also, the TFE3 % in the data set with endogenous TFE3 is given as 10.45%. Also, in the data set with SH-SY5Y cells [2], the “DQ Intensity” value is listed as 103.59 and the “DQ Spot” value is recorded as 106.97. In the data set with SH-SY5Y cells [3], the AK amounted to 112.72. Also, the “Nuclear Count” value with SH-SY5Y cells [4] is 125.04.

In the case of `COc1ccc(C2=C(Nc3cccc(C(=O)O)c3)C(=O)NC2=O)cc1` [UNC10225244A], the TFEB % in the data set on endogenous TFEB is given as 15.51%. Further, the TFE3 % in the data set with endogenous TFE3 was 6.87%. In addition, in the data set on SH-SY5Y cells [2], the “DQ Intensity” value is recorded as 74.93 and the “DQ Spot” value came to 82.38. The compound further showed an AK in the data set with SH-SY5Y cells [3] of 80.02. The “Nuclear Count” value with SH-SY5Y cells [4] is on record as 109.36.

Take `COc1ccccc1-c1ccc2c(NC(=O)C3CC3)n[nH]c2n1` [SB-711239]: in the data set with endogenous TFEB, the TFEB % worked out at 3.98%. In the data set on endogenous TFE3, the TFE3 % is 10.01%. Also, in the data set on SH-SY5Y cells [2], the “DQ Intensity” value came out at 73.89 and the “DQ Spot” value amounted to 92.69. The same compound had an AK in the data set with SH-SY5Y cells [3] of 73.81. Further, in the data set with SH-SY5Y cells [4], the “Nuclear Count” value is 104.88.

Compound `O=C(Nc1n[nH]c2nc(-c3ccc(O)cc3)ccc12)C1CC1` [SB-710363] had a TFEB % in the data set with endogenous TFEB of 15.49%. This compound also registered a TFE3 % in the data set with endogenous TFE3 of 18.16%. Moreover, the Outcome result in the data set on SH-SY5Y cells [1] was “DQ Only”. For the same compound, in the data set with SH-SY5Y cells [2], the “DQ Intensity” value was 87.11 and the “DQ Spot” value turned out to be 130.75. This compound also registered an AK in the data set with SH-SY5Y cells [3] of 133.76. In addition, in the data set with SH-SY5Y cells [4], the “Nuclear Count” value amounted to 103.55.

`Nc1n[nH]c2cnc(-c3ccccc3)cc12` [SB-642124] had a TFEB % with endogenous TFEB of 10.03%. In the data set with endogenous TFE3, this compound showed a TFE3 % of 5.79%. In the data set on SH-SY5Y cells [2], the “DQ Intensity” value was determined as 94.71 and the “DQ Spot” value worked out at 98.20. The AK in the data set with SH-SY5Y cells [3] is on record as 86.32. Besides, the “Nuclear Count” value in the data set on SH-SY5Y cells [4] was determined as 121.57.

The values are drawn from publication PMC9851200, “Multiparameter phenotypic screening for endogenous TFEB and TFE3 translocation identifies novel chemical series modulating lysosome function” (Autophagy, 2022).
